The numbers were not newly measured in patent publication US20210017202A1, “SPHINGOMYELIN-DERIVED LIPID AND METHOD FOR PRODUCING SAME” (NOF CORPORATION, priority 2018, published 2021), which cites them from elsewhere.

For this series the following is noted: liposome with cholesterol.

For sphingomyelin, where the note is “aqueous solution at pH2, after 20 hr”, the amount of hydrolysate entry is “less than 5%”.

In the case of `CCCCCCCCCCCCCCCCCC(=O)OC[C@H](COP(=O)([O-])OCC[N+](C)(C)C)OC(=O)CCCCCCCCCCCCCCCCC` [distearoylglycerophosphocholine], the amount hydrolyzed entry (aqueous solution at pH2, 4 hr) was “about 40%”.
